The values below are quoted from earlier work in the CATMoS acute toxicity set (Mansouri et al. 2021).

The data set can be described thus: rat acute oral toxicity. To be noted: in vivo.
Take `C[N+](C)(C)CC[N+]1(C)Cc2c(Cl)c(Cl)c(Cl)c(Cl)c2C1`: the LD50 (commonly the dose at which mortality reaches 50%) was 300 mg/kg. For the molecule `O=C(O)c1cc2ccccc2oc1=O`, the LD50 is 200 mg/kg. On to `CCN(CC)CCN`, for which the LD50 was 2830 mg/kg. On to `CCCCOC(=O)c1ccccc1C(=O)OCc1ccccc1`, for which the LD50 is 2330 mg/kg. Consider `COP(=O)(OC)SC(P(=O)(OC)OC)=P(OC)(OC)OC`, for which the LD50 is 38 mg/kg. Take `CCc1cc2c(cc1C(C)=O)C(C)(C)CCC2(C)C`: the LD50 is 260 mg/kg.

Consider `CCCCCCN`, for which the LD50 is 670 mg/kg. `CC(O)CN(CC(C)O)c1nc(Nc2ccc(S(=O)(=O)O)cc2)nc(Nc2ccc(/C=C/c3ccc(Nc4nc(Nc5ccc(S(=O)(=O)O)cc5)nc(N(CC(C)O)CC(C)O)n4)cc3S(=O)(=O)O)c(S(=O)(=O)O)c2)n1` (centres undefined): the LD50 is 12100 mg/kg. On to `CC(C)NNC(=O)c1ccncc1`, for which the LD50 was 365 mg/kg. Take `OCC(F)(F)C(F)(F)C(F)(F)CO`: the median lethal dose (LD50) was 1780 mg/kg. In the case of `BrC(Br)C(Br)Br`, the LD50 was 1200 mg/kg. Regarding `CC(C)CCN(C)C`, the LD50 is 225 mg/kg. `C=C(Nc1ccc(NC(=O)COC)cc1)N(C)C`: the LD50 was 4690 mg/kg. In the case of `CO[C@H]1[C@@H](O)C[C@H](O[C@H]2[C@@H](O)C[C@H](O[C@H]3[C@@H](O)C[C@H](O[C@H]4CC[C@@]5(C)[C@H](CC[C@@H]6[C@@H]5C[C@@H](O)[C@]5(C)[C@@H](C7=CC(=O)OC7)CC[C@]65O)C4)O[C@@H]3C)O[C@@H]2C)O[C@@H]1C`, the LD50 is 8.3 mg/kg. In the case of `O=C(SCc1ccccc1)N1CCOCC1`, the LD50 is 50 mg/kg.

For the molecule `O=C(O)C1CCCCC1`, the LD50 was 3260 mg/kg. As for `CCCCOC(C)COC(=O)COc1cc(Cl)c(Cl)cc1Cl` (centres undefined), the LD50 is 500 mg/kg. On to `CNC(=O)c1cc(-c2ccccc2)ccc1OCCO`, for which the LD50 was 2700 mg/kg. In the case of `NCC1CCC=CO1` (centres undefined), the LD50 is 1000 mg/kg. As for `O=c1occo1`, the LD50 is 300 mg/kg. On to `OC/C=C/Cl`, for which the LD50 is 102 mg/kg. Regarding `CCOC(=O)C(C(C)=O)C(=O)Cc1c(C)n(C(=O)c2ccc(Cl)cc2)c2ccc(OC)cc12` (centres undefined), the LD50 is 175 mg/kg. In the case of `CC(COc1ccc(C(C)(C)C)cc1)OS(=O)OCCCl` (centres undefined), the 50% lethal dose (LD50) was 3900 mg/kg. Consider `COc1ccccc1OC1CCN(CCCC(=O)c2ccc(F)cc2)C1` (centres undefined), for which the LD50 was 241 mg/kg.

Consider `CNc1c2c(nn1C)CCCC2`, for which the LD50 is 1850 mg/kg. As to `CC(=S)Nc1ccccc1`, the LD50 is 2640 mg/kg. Consider `CNC(=O)Oc1ccc(Cl)c2c1OC(C)(C)C2`, for which the LD50 was 248 mg/kg. In the case of `CCCCCOC(CBr)c1ccc(C2CCCCC2)cc1` (centres undefined), the LD50 was 250 mg/kg. For the molecule `CCCCCCCCCc1ccc(OCCO)cc1`, the LD50 is 2100 mg/kg. For the molecule `FC(F)(F)C(F)(Br)Br`, the LD50 is 54600 mg/kg. As to `O=C1C(=C(Cl)Cl)C(=O)C2(Cl)C3C=CC(C3)C12Cl` (centres undefined), the LD50 is 2760 mg/kg. For `O=Cc1cccc2ccccc12`, the LD50 was 667 mg/kg. Turning to `c1ccc(-c2nnco2)cc1`, the LD50 was 440 mg/kg.

In the case of `CC1(C)C(=O)N(Cl)C(=O)N1Cl`, the LD50 is 542 mg/kg.

Consider `CC[C@@H](C(=O)[C@@H](C)[C@@H](O)[C@H](C)CCc1ccc(C)c(O)c1C(=O)O)[C@H]1O[C@](CC)([C@H]2CC[C@](O)(CC)[C@H](C)O2)C[C@@H]1C`, for which the LD50 is 122 mg/kg.

`CC(C)(C)c1cc(C(=O)c2cccs2)cc(C(C)(C)C)c1O`: the LD50 was 1620 mg/kg. With `C=CCOc1ccccc1OC(=O)NC`, the LD50 was 200 mg/kg. Regarding `Nc1ccc(N=Nc2ccccc2)cc1`, the LD50 was 1250 mg/kg.

`CCCC(CCC)C(C)NC(=O)CC` (centres undefined): the LD50 was 700 mg/kg. In the case of `COc1ccc(C=C2C(=O)N=C3c4ccccc4N=CN23)cc1`, the LD50 was 258 mg/kg. On to `Cc1cc(C(=O)Nc2ccccc2)c(C)o1`, for which the LD50 was 64 mg/kg.

Consider `ClC1=C(Cl)C2(Cl)C3CCCCC3C1(Cl)C2(Cl)Cl` (centres undefined), for which the LD50 was 100 mg/kg. In the case of `CCc1ccc2nc(C(F)(F)F)[nH]c2c1`, the LD50 is 28 mg/kg.

`CCOP(=O)(OCC)ON=C(C1CC1)C1CC1`: the LD50 was 7.85 mg/kg.

In the case of `O=C(CCBr)N1CCN(C(=O)CCBr)CC1`, the LD50 was 220 mg/kg. With `CCOC(C)=O`, the median lethal dose (LD50) is 5620 mg/kg.

For the molecule `CNC(=O)ON=C1CSCS1`, the LD50 is 13 mg/kg. Turning to `O=S1(=O)CCC(NC(=S)S)C1` (centres undefined), the LD50 was 1700 mg/kg.

With `CCCCOC(=O)C1CC1OCCCC` (centres undefined), the LD50 is 24 mg/kg. `O=c1c(Cl)c(Cl)cnn1-c1ccccc1`: the LD50 is 2520 mg/kg.

Consider `CCCCCCC#COC(=O)OCC`, for which the LD50 is 2850 mg/kg. On to `COc1c(C)c2c(c(O)c1C/C=C(\C)CCC(=O)O)C(=O)OC2`, for which the LD50 is 352 mg/kg. Turning to `Clc1cccc(SCc2nn[nH]n2)c1`, the LD50 was 2200 mg/kg. As to `O=[N+]([O-])c1ccc(O/N=C/c2cc(Br)c(O)c(Br)c2)c([N+](=O)[O-])c1`, the LD50 is 1100 mg/kg. As for `Cl[C@H]1[C@H](Cl)[C@@H](Cl)[C@H](Cl)[C@H](Cl)[C@H]1Cl` (racemic), the LD50 is 177 mg/kg. In the case of `COc1cc(C(=O)N2CCCCCCC2)cc(OC)c1OC`, the LD50 is 130 mg/kg. In the case of `O=C(NCCO)c1ccccc1O`, the LD50 is 4300 mg/kg. Consider `COc1c2ccoc2cc2oc(C)cc(=O)c12`, for which the LD50 was 832 mg/kg. As to `CCOC(=O)[C@H](CCc1ccccc1)N[C@@H](C)C(=O)N1Cc2cc(OC)c(OC)cc2C[C@H]1C(=O)O`, the LD50 was 4020 mg/kg. Regarding `CC(C)(COCC1CO1)COCC1CO1` (centres undefined), the LD50 is 4500 mg/kg.

For the molecule `C=C[C@@]1(C)CC(=O)[C@]2(O)[C@@]3(C)[C@@H](O)CCC(C)(C)[C@@H]3[C@H](O)[C@H](OC(C)=O)[C@@]2(C)O1`, the LD50 was 2550 mg/kg. As to `NC(=O)NO`, the LD50 was 5760 mg/kg. Turning to `c1ccc2c(C(CCN3CCOCC3)CCN3CCOCC3)cccc2c1`, the LD50 was 708 mg/kg.

As to `CC1=CC(=O)NS(=O)(=O)O1`, the LD50 was 7430 mg/kg. In the case of `CCNC(=S)NCC`, the LD50 is 316 mg/kg.

`CCN(CC)CCNC(=O)c1cc(Br)c(N)cc1OC`: the LD50 is 545 mg/kg. Turning to `O=C(O)C1CC=CCC1` (centres undefined), the LD50 is 4260 mg/kg. Consider `COc1ccc(N)cc1Cl`, for which the LD50 was 550 mg/kg.

On to `O=C(O)CCC(=O)Nc1ccc(NS(=O)(=O)c2ccc([N+](=O)[O-])cc2)cc1`, for which the LD50 was 1500 mg/kg. Take `N#Cc1ccc(C2CCCc3cncn32)cc1` (centres undefined): the LD50 was 200 mg/kg. Consider `CC(C)OP(=S)(CCl)Sc1ccc(Br)cc1` (centres undefined), for which the LD50 is 23 mg/kg.

With `CCCCC(CC)COC(C)=O` (centres undefined), the LD50 was 3000 mg/kg.

In the case of `Cc1nc([N+](=O)[O-])cn1-c1ccc([N+](=O)[O-])cc1`, the LD50 was 4810 mg/kg. Regarding `CCCCCCCCCCCCCCCC[N+](C)(C)CC(=O)[O-]`, the LD50 is 1620 mg/kg. Regarding `Cc1c(Cl)cccc1Nc1ncccc1C(=O)O`, the LD50 was 335 mg/kg. For the molecule `CC1(C)Cc2cccc(OC(=O)NCSc3ccc(Br)cc3)c2O1`, the LD50 is 25 mg/kg. As to `CC(CN(C)C)CN1c2ccccc2CCc2ccccc21` (centres undefined), the median lethal dose (LD50) was 800 mg/kg. Turning to `Cc1c2ccccc2c(C)c2c1ccc1ccccc12`, the LD50 is 327 mg/kg. Regarding `CCSP(=O)(OC)OC`, the LD50 is 13.8 mg/kg. For `CCCCCCCCCCCC[N+](C)(C)Cc1ccc(CC)cc1`, the LD50 was 700 mg/kg. Regarding `O=C(CN1CCOCC1)N/N=C/c1ccc([N+](=O)[O-])o1`, the LD50 was 420 mg/kg. For `CC(C)CNC(=O)OCC(O)C1COc2ccccc2O1` (centres undefined), the LD50 is 1500 mg/kg. On to `CCC(C(O)c1ccc2[nH]c(=O)ccc2c1)N1CCN(c2cccc(Cl)c2)CC1` (centres undefined), for which the LD50 is 500 mg/kg. For `FC(F)(F)c1nc2c(Cl)c(Cl)c(Cl)c(Br)c2[nH]1`, the LD50 was 4.12 mg/kg.
